Data published in patent US20170029841A1, “METHODS AND COMPOSITIONS FOR SELECTIVE REGULATION OF PROTEIN EXPRESSION” (priority 2015, published 2017).

Tested on: maize tissue pools (tassel, ear, leaf, root, stem)
Assay: siRNA profiling microarray assay of mts-siRNA sequences across maize tissues
Settings: for 01DKD2 V8-V9 Tassel relative signal value: germplasm 01DKD2, V8-V9 tassel; for 01DKD2 V10-V12 Tassel relative signal value: germplasm 01DKD2, V10-V12 tassel; for 01DKD2 Other Tissue relative signal value: germplasm 01DKD2, combined signals from other tissue; for LH244 V8-V9 Tassel relative signal value: germplasm LH244, V8-V9 tassel; for LH244 V10-V12 Tassel relative signal value: germplasm LH244, V10-V12 tassel; for LH244 Other Tissue relative signal value: germplasm LH244, combined signals from other tissue
Procedure: A siRNA profiling microarray assay was performed using μParaflo® Microfluidics chips provided by LC Sciences LLC (Houston, Tex., USA) with 1,200 sequences selected from the thousands of mts-siRNA sequences identified from the differential bioinformatic analysis. The microarray chips contained triplicate probes of the complementary sequence for each of the 1,200 mts-siRNA sequences. Total RNA was purified from 26 maize tissue pools (duplicate or triplicate tissue pools) from either LH244 (ATCC deposit number PTA-1173) or 01DKD2 (I294213) (ATCC deposit number PTA-7859) inbred plants. Each of the 26 RNA samples were hybridized with the microarray chips that contain probes for the 1,200 mts-siRNA. Hybridization images were collected using a GenePix® 4000B laser scanner (Molecular Devices, Sunnyvale, Calif.) and digitized using Array-Pro® Analyzer image analysis software (Media Cybernetics, Rockville, Md.). Relative signal values were derived by background subtraction and normalization. Differentially expressed signals were determined by t-test with p<0.05. From the microarray analysis, about 500 mts-siRNA from the 1,200 were identified as being highly tassel-specific.
Selected mts-siRNA sequences aligning to one of the six cDNA sequences were used for further microarray analysis to determine differential expression across maize tissues. Microarray analysis for mts-siRNA sequences of normalized signal values for V8-V9 tassel, V10-V12 tassel, or combined signals from the other tissue for maize germplasm LH244 and 01DKD2 is presented in Tables 3-10. […] Signal value results are measured as relative signal values and standard error (p<0.05) is represented by (STDR). […] The mts-siRNA sequence corresponds to the sense or antisense strand of the corresponding mts-siRNA target sequence in the cDNA sequence. The mts-siRNA sequence may have a single nucleotide, a two nucleotide, or a three nucleotide mismatch with the aligned portion of the cDNA sequence, and the mts-siRNA sequence may align to the sense strand or antisense strand of the cDNA sequence. The mts-siRNA sequences provided here are found across different maize germplasms.

| Substance | 01DKD2 V8-V9 Tassel relative signal value | 01DKD2 V10-V12 Tassel relative signal value | 01DKD2 Other Tissue relative signal value | LH244 V8-V9 Tassel relative signal value | LH244 V10-V12 Tassel relative signal value | LH244 Other Tissue relative signal value |
| --- | --- | --- | --- | --- | --- | --- |
| SEQ ID NO: 47: mts-siRNA sequence aligning to cDNA SEQ ID NO: 19 (TGGTGTGGTCGTTAGCTACTTTA; expressed or natural sequence) | 12.5 | 1051.5 | 4 | 157.5 | 900.7 | 15.5 |
| SEQ ID NO: 50: mts-siRNA sequence aligning to cDNA SEQ ID NO: 19 (CTGATATCTATGCTAATTCAGG; expressed or natural sequence) | 5.5 | 326 | 1.8 | 296 | 722 | 0 |
| SEQ ID NO: 37: mts-siRNA sequence aligning to cDNA SEQ ID NO: 18 (CAGAGGATGGCGATATGCACGTTG; expressed or natural sequence) | 9.5 | 1224.5 | 3.3 | 554 | 553 | 1.5 |
| SEQ ID NO: 68: mts-siRNA sequence aligning to cDNA SEQ ID NO: 21 (GAACAGTGATTTTATGAGCAA; expressed or natural sequence) | 98 | 96 | 2.5 | 265 | 85.3 | 5 |
| SEQ ID NO: 78: mts-siRNA sequence aligning to cDNA SEQ ID NO: 22 (GCATGCACTGGTGAGTCACTGTTG; expressed or natural sequence) | 3 | 715.5 | 4.5 | 47.5 | 642.7 | 1 |
| SEQ ID NO: 25: mts-siRNA sequence aligning to cDNA SEQ ID NO: 17 (ACGACCGTGCATGGTGAT; expressed or natural sequence) | 56 | 440 | 2.3 | 289 | 824.3 | 2.6 |
| SEQ ID NO: 57: mts-siRNA sequence aligning to cDNA SEQ ID NO: 20 (GACATTTGCAGTTCTATGGTGT; expressed or natural sequence) | 29 | 134.5 | 3.8 | 126.5 | 248 | 2.4 |
| SEQ ID NO: 45: mts-siRNA sequence aligning to cDNA SEQ ID NO: 19 (TAAATGGTCGTCGTATTAGCTGAT; expressed or natural sequence) | 253 | 7195.5 | 5.8 | 7901 | 9982.3 | 8.2 |
| SEQ ID NO: 60: mts-siRNA sequence aligning to cDNA SEQ ID NO: 20 (CGTCGTGCAGCTGGTCACCGGT; expressed or natural sequence) | 75.5 | 303 | 9.3 | 141.5 | 265.7 | 5.8 |
| SEQ ID NO: 61: mts-siRNA sequence aligning to cDNA SEQ ID NO: 21 (CTGTGATGTAGAAGCCCAGAC; expressed or natural sequence) | 461 | 454 | 8 | 850.5 | 334.7 | 9.4 |
| SEQ ID NO: 75: mts-siRNA sequence aligning to cDNA SEQ ID NO: 22 (ACAGTGACTCACCAGTGCATGCAC; expressed or natural sequence) | 3 | 257 | 5 | 53 | 237.3 | 3.3 |
| SEQ ID NO: 83: mts-siRNA sequence aligning to cDNA SEQ ID NO: 22 (CAAGGCAAGAAGGTGCTT; expressed or natural sequence) | 2 | 253.5 | 1.5 | 173 | 303 | 2.5 |
| SEQ ID NO: 64: mts-siRNA sequence aligning to cDNA SEQ ID NO: 21 (GCATATATGTGATGAAGACCG; expressed or natural sequence) | 13.5 | 9 | 1.3 | 23 | 13.7 | 1.8 |
| SEQ ID NO: 65: mts-siRNA sequence aligning to cDNA SEQ ID NO: 21 (CGAATTGATTCCACCCATTCC; expressed or natural sequence) | 444.5 | 454.5 | 12 | 811.5 | 260.3 | 5.8 |
| SEQ ID NO: 71: mts-siRNA sequence aligning to cDNA SEQ ID NO: 22 (AGCTATCGATTCCCTAAGTGCCA; expressed or natural sequence) | 46 | 1943.5 | 2.3 | 1125.5 | 2380 | 1.6 |
| SEQ ID NO: 35: mts-siRNA sequence aligning to cDNA SEQ ID NO: 18 (TAGCCACACGGTCACGTTTGGACG; expressed or natural sequence) | 4 | 519 | 2.8 | 437 | 117.7 | 1.6 |
| SEQ ID NO: 59: mts-siRNA sequence aligning to cDNA SEQ ID NO: 20 (ATGCCAAAGGTACCGATGTTAG; expressed or natural sequence) | 202 | 811.5 | 0.3 | 789 | 1262.7 | 4.1 |
